# In patent EP1136472A1, “ARYL- AND HETEROARYLAMIDES OF CARBOALKOXYSULFANILIC ACIDS” (priority 1998, dated 2000):
# Read-outs that look alike come from different tables or passages of the source.
# Columns and labels:
# [1] = tested on: Human's platelet aggregation; experiment: Antiaggregational properties, ADP-induced platelet aggregation in platelet-rich plasma; format: cell-based; conditions: adenosine diphosphate 2.5 µmol/l
# Method: Human's platelet aggregation was investigated in plasma of healthy 50±3 years donors that was enriched by thrombocytes, by means of aggregometer FRM-1. The substance under investigation was added to blood plasma samples (100 µg/ml) before inducing aggregation by means of adenosine diphosphate (2.5 µmol/l). Magnitude of the maximum non-reversible platelet aggregation in the control samples (solvent) was adopted as 100%, and that in tested samples was counted as percentage compared to the control. Inhibition of the aggregation by more than 50% at the given concentration was evaluated as meaningful inhibition. Adenosine (5 µg/ml) and aspirin (9 µg/ml), that inhibit aggregation at these concentrations by 100%, were utilized as reference agents.
# [2] = tested on: Mycobacterium tuberculosis H37RV; experiment: Antimicrobial action, serial dilution method; format: cell-based; conditions: 72-hour cultivation at 37°C
# [3] = tested on: Herpes Simplex virus of the type I (HSV-I /Leningrad/248/88); experiment: Antiviral effect on Herpes Simplex virus (cytopathogenic action on Vero cells); format: cell-based; conditions: compound concentration of 100 µg/ml; for Quantity of the unchanged cells: number of cells in 100 visual fields, after 36 hours; for percentage of protection: protection of cells from virus as compared to the control of cell culture
# [4] = format: in vivo; conditions: mice, observed 72 hours, 300 was the maximally utilized
# Method: Tested substance was introduced perorally (in dose of 300 mg/kg) through a gastric tube or intraperitoneally (in dose of 100 mg/kg) to no-breed white mice with mass 18-20 g (each tested group consisted of 3 males and 3 females). Then the mouse state was observed during 72 hours. Absence of symptoms characteristic of toxic effects, or absence of animal death during the given time allows to make a conclusion that the toxicity of the tested substance is low.
# [5] = tested on: primary culture of human lymphocytes; experiment: Interferon-inducing activity in primary culture of human lymphocytes (IFN-α immunoenzyme test); format: cell-based
# Method: Interferon synthesis induction caused by the claimed compounds was conducted on a primary culture of human lymphocytes (it is these cells in a human organism that are the main producers of interferons). To obtain lymphocyte culture, fresh blood (within 12 hours after sampling) from healthy donors (not of group II) was used. To separate lymphocytes, heparinized blood obtained from healthy donor was centrifuged in a density gradient ficoll-verografin of […] in order to extract a fraction of immunocompetent cells. This fraction was selected and diluted with the nutrient medium RPMI-1640, containing 5% of fetal calf serum, 0.3 mg/ml of L-glutamin, 100 un/ml of penicillin, and 50 µg/ml of streptomycin. The concentration of lymphocytes was considered after dying them with methylene blue and calculation of cell number in a chamber of a hemocytometer. Initial solutions of the claimed compounds were diluted with the nutrient medium RPMI-1640 so that the final concentrations of the compounds, which were obtained after introduction of lymphocyte suspension, constituted the raw: 100 µg/ml, 10 µg/ml, 1 µg/ml. The final concentration of lymphocytes in the induction mixture was 3x10^6 cell/ml.
# Control and test samples were incubated for 24 hours at the temperature of 37°C. After incubation, the samples were centrifuged at 2,000 G to deposit cell elements, and IFN-containing supernatant was separate out of the samples; then the supernatant was analyzed for the quantitative content of IFN. Cell deposition was resuspended in the preceding volume of nutrient medium, colored with vital dye trypan blue, and cell number was counted in a chamber of a hemocytometer (as described above) to determine cytotoxic action of the compounds.
# Quantitative determination of the content of IFN in control and test samples was conducted using the immunoenzyme test system Pro Con IF2 Plus, that is intended for determination of IFN-α, which is produced by TOO "Protein contour". The solid-phase immunoenzyme method, utilizing horse radish peroxidase as an indicator enzyme, was used to determine the quantity of interferon in the samples. Activity of the bonded peroxidase was measured using an automatic photometer for microplates with a microprocessor at the wavelength of 450 nm.
# Based on the obtained results, a calibrating curve was formed, which allows to obtain data expressed in international units (IU) of activity, using the microprocessor of the automatic photometer. The results of the analysis are expressed in IU of activity of IFN per ml in the given induction system, which contains 3x10^6 lymphocyte/ml. Each test and control point was investigated in four parallels.
# Controls of immunoenzyme reaction: • 1. Control of DMSO with a nutrient medium. • 2. Control of system components (according to an instruction).
# The obtained data were undergone a statistical analysis using t-criterion, and calculation of the confident interval of probability at p=0.05 was carried out. Coincidence between the results obtained in the parallel tests was analyzed.
# C.trachomatis D323 = experiment: Antichlamydial activity in infected cell culture (McCoy and L929); format: cell-based, Chlamydia trachomatis; conditions: 100 mg/l; for percentage of cell protection from infection / Number of unchanged cells: 48 hours; for Number of unchanged cells: counted in 100 visual fields
# Method: The antichlamydial activity of the claimed compounds was studied in respect to C.trachomatis […], which is a standard strain contained in the collection of the department of microbiology of St. Petersburg State Pavlov Medical University. […] Cell cultures McCoy and L929 obtained from the Institute of Cytology of RAS were used in this work. Cells were grown in flasks made of neutral glass in the medium RPMI-1640 containing 10% of fetal calf serum. The test was performed in flat-bottom flasks made of glass (non-toxic), that were supplied with cover glasses. The cells were introduced into the medium in the final concentration of 1x10^6 cell/ml. […] Simultaneously, tested compounds in a final concentration of 100 mg/l were added to the cells. The sample was centrifuged at 2400 G for 60 minutes at a room temperature and incubated at 37°C for 2 hours. […] The samples were doubled using the medium without cycloheximide so as to exclude its effect on the investigated compounds. The samples were incubated for 48 hours in CO2-incubator. The controls included: • 1. Control of cell culture • 2. Control of action of solvents • 3. Control of action of chlamydia in absence of any compounds • 4. […] Control of the tested compounds as to toxicity in respect to the cell culture. Evaluation of the results was carried out by the way of determination of chlamydial cytoplasmatic inclusions (CPI) that was conducted by the method of immunofluorescence (MicroTrack Chlamydia trachomatis Direct Specimen Test), and by the way of determination of chlamydia antigens that was conducted by means of CylaMonoScreen (Russian-British Joint Venture 66 Regent's Parc Road London NW1 7SX). The effect of the action of compound was determined by analysis of the monolayer state and number of cells with CPI when compared with the control (cell culture infected with C.trachomatis […]); in doing so, the number of unchanged cells, that were counted in 100 visual fields obtained using the eyepiece-micrometer, was taken into consideration.
# [6] = tested on: alanine-aminotranspherase (AlAT); experiment: Hepatoprotective activity, CCl4 liver damage in rats; format: in vivo
# Method: CCl4 dissolved in 50% olive oil (1 ml/kg) was subcutaneously administrated to rats. Test substances were administrated perorally in a dose of 20 mg/kg 30 minutes before and 7 hours after the CCL4 administration. The activity of alanine-aminotranspherase (AlAT), which is a marker enzyme of liver parenchyma damage, was assessed twenty-four hours later. Reducing of enzyme amount by more than 30% relative to the control group was considered as evidence of hepatoprotective properties of the substance. Vitamin E in a dose of 100 mg/kg was used as a reference agent.
# [7] = Mycobacterium tuberculosis, H37RV, read-out: MIC
compound,measurement,setting,value
Nc1ncnc2c1ncn2[C@@H]1O[C@H](CO)[C@@H](O)[C@H]1O [Adenosine],inhibition at 5 µg/mL,"[1]; Homo sapiens, Platelet, 5 µg/ml",100%
"CC(=O)Oc1ccccc1C(=O)O [Aspirin, aspirin]",inhibition at 9 µg/mL,"[1]; Homo sapiens, Platelet, 9 µg/ml",100%
CC[C@@H](CO)NCCN[C@@H](CC)CO [Ethambutol],MIC,[2]; [7],5 mg/L
NNC(=O)c1ccncc1 [Isoniazid],MIC,[2]; [7],0.1 mg/L
CC1COc2c(N3CCN(C)CC3)c(F)cc3c(=O)c(C(=O)O)cn1c23 (stereo not shown) [Ofloxacin],MIC,[2]; [7],0.5 mg/L
[H]/N=C(/N)N[C@H]1[C@H](O)[C@@H](O)[C@H](O[C@@H]2O[C@@H](C)[C@](O)(C=O)[C@H]2O[C@@H]2O[C@@H](CO)[C@H](O)[C@@H](O)[C@@H]2NC)[C@@H](N/C(N)=N\[H])[C@@H]1O [Streptomycin],MIC,[2]; [7],0.2 mg/L
"CCCCOC(=O)Nc1ccc(S(=O)(=O)Nc2ccc([N+](=O)[O-])cc2)cc1 [VII, Carbobutoxysulfanylic acid (4-nitrophenyl)amide]",Quantity of the unchanged cells,[3],8000
same,percentage of protection,[3],80%
same,Maximal tolerable dose: Concentration of tested compounds at oral introducing,[4],300 mg/L
"CCCCOC(=O)Nc1ccc(S(=O)(=O)Nc2c(Cl)cccc2Cl)cc1 [X, Carbobutoxysulfanylic acid (2,6-dichlorophenyl)amide]",Quantity of the unchanged cells,[3],7000
same,percentage of protection,[3],70%
same,Content of IFN in induction mixture after 24-hour incubation,[5]; 1 mg/l,7 ± 1 IU/3x10^4 lymph./ml
same,Content of IFN in induction mixture after 24-hour incubation,[5]; 10 mg/l,26 ± 1 IU/3x10^4 lymph./ml
same,Content of IFN in induction mixture after 24-hour incubation,[5]; 100 mg/l,100 ± 3 IU/3x10^4 lymph./ml
same,percentage of cell protection from infection,C.trachomatis D323,50%
same,Number of unchanged cells,C.trachomatis D323,4.000
"CCCCOC(=O)Nc1ccc(S(=O)(=O)Nc2cccc(Br)c2)cc1 [XII, Carbobutoxysulfanylic acid (3-bromophenyl)amide]",Quantity of the unchanged cells,[3],5000
same,percentage of protection,[3],50%
same,Content of IFN in induction mixture after 24-hour incubation,[5]; 1 mg/l,"1,3 ± 0,2 IU/3x10^4 lymph./ml"
same,Content of IFN in induction mixture after 24-hour incubation,[5]; 10 mg/l,"2 ± 0,5 IU/3x10^4 lymph./ml"
same,Content of IFN in induction mixture after 24-hour incubation,[5]; 100 mg/l,"2,5 ± 0,6 IU/3x10^4 lymph./ml"
same,percentage of cell protection from infection,C.trachomatis D323,45%
same,Number of unchanged cells,C.trachomatis D323,3.600
"CCCCCOC(=O)Nc1ccc(S(=O)(=O)Nc2c(C)n(C)n(-c3ccccc3)c2=O)cc1 [XLI, Carbopentoxysulfanylic acid (1,5-dimethyl-2-phenylpyrazolone-4-yl)-amide]",Quantity of the unchanged cells,[3],7500
same,percentage of protection,[3],75%
same,Content of IFN in induction mixture after 24-hour incubation,[5]; 1 mg/l,5 ± 0.4 IU/3x10^4 lymph./ml
same,Content of IFN in induction mixture after 24-hour incubation,[5]; 10 mg/l,18.7 ± 0.2 IU/3x10^4 lymph./ml
same,Content of IFN in induction mixture after 24-hour incubation,[5]; 100 mg/l,69 ± 1 IU/3x10^4 lymph./ml
same,activity against chlamydia (in words),C.trachomatis D323,marked biological activity against chlamydia
same,percentage of cell protection from infection,C.trachomatis D323,55%
same,Number of unchanged cells,C.trachomatis D323,4.400
"CCCCCCOC(=O)Nc1ccc(S(=O)(=O)Nc2ccccc2C)cc1 [XXIX, Carbohexoxysulfanylic acid (2-toluyl)amide]",Quantity of the unchanged cells,[3],6000
same,percentage of protection,[3],60%
same,activity against chlamydia (in words),C.trachomatis D323,marked biological activity against chlamydia
same,percentage of cell protection from infection,C.trachomatis D323,55%
same,Number of unchanged cells,C.trachomatis D323,4.400
same,% of reducing AlAT,"[6]; perorally 20 mg/kg 30 minutes before and 7 hours after CCl4, AlAT twenty-four hours later, relative to the control group",-36%
same,% of inhibition,[1]; 100 µg/ml,33.3±8.2%
"Carbo(2,2,2-trifluorethoxy)-sulfanylic acid (1,2,4-thiadiazole-2-butyl-5-yl)amide [XL]",Quantity of the unchanged cells,[3],7000
same,percentage of protection,[3],70%
same,Content of IFN in induction mixture after 24-hour incubation,[5]; 1 mg/l,1.6 ± 0.1 IU/3x10^4 lymph./ml
same,Content of IFN in induction mixture after 24-hour incubation,[5]; 10 mg/l,3.6 ± 0.5 IU/3x10^4 lymph./ml
same,Content of IFN in induction mixture after 24-hour incubation,[5]; 100 mg/l,14 ± 0.2 IU/3x10^4 lymph./ml
"Carboheptoxysulfanylic acid (1,2,4-thiadiazole-2-hexyl-5-yl)amide [XXXIV]",MIC,[2],50 mg/L
Rifampycin,MIC,[2],0.05 mg/L
Vitamin E [reference compound],% of reducing AlAT,"[6]; Vitamin E in a dose of 100 mg/kg, reference agent",-30%
